Solubility data for 8 compounds are collected here from US7629365B2 (Glaxo Group Limited, priority 2006, dated 2009).

Each structure is given as a SMILES string. Converted amounts (≈) assume the structure as drawn. Where two headings read alike, the source gives them in different places.

The data set can be described thus: Compound solubility determination in FaSSIF and FeSSIF. It is filed as physicochemical. To be noted: thermodynamic from solid. The method, then: Compound Solubility Determination
An amount of 3 mg solid compound with LC-MS purity ≧95% was required. This amount was split between 3 different glass vials (1.8 ml volume each), placing 1 mg compound into each one.
Organic solvents of HPLC grade were used. Ultra pure water (Milli-Q grade) was used. Buffers were prepared with ultra pure water and filtered using 0.45μ nylon filters. The compositions of each solvent employed in this assay are described below (part III).
2. Determination of Equilibrium Solubility (Assuming Chemical Stability in the Desired Solvent is Not a Problem).
For each of the three vial samples prepared as described above, in which the amount of compound was totally dissolved, the following procedure was subsequently carried out: • a) A small amount (approx. 0.1 mg) of additional solid compound was added to the vial to maintain an excess of the compound in the mixture in the form of undissolved solid. • b) The samples were magnetically stirred for 24 hr. If required, additional solid compound (0.1 mg) was added to maintain excess of it and then the samples were stirred again. • c) Then the samples were filtered (Millipore Milex filters nylon 0.2 um) and three aliquots were taken (one from each of the three vials) and analysed by LC-MS. • d) The pH of the final solution in each sample was measured with a pH-meter (WTW pH330i and a pH-electrode Sentix 41). 3. LC-MS Assay for Analytical Quantification
All filtered aliquots were analysed by LC-MS. The analysis was carried out with a Luna 5 μC18(2) column 4.6×150 mm, using a HP1100HPLC instrument interfaced with a Waters ZMD-2000 MS spectrometer. The concentration of the final sample as prepared above was calculated from that of a reference calibration curve obtained from serial dilutions of a 2 mM solution of the compound under investigation in DMSO (Aldrich cat. ref.: 27685-5) stock solution.
The analysis of all LC-MS data was performed with MassLynx 3.4 software. Statistical and graphic analysis of data was performed using Microsoft Excel. The concentration (μM) and solubility (μg/ml) for each compound was calculated using the peak areas from the sample and those from the calibration curve.
• A) FaSSIF is a solvent which simulates the Fasted State of the Intestinal Fluid. (FaSSIF: Fasted State Simulated Intestinal Fluid).
FaSSIF Preparation Procedure. 1. Preparation of 1 L of pH 6.8 Buffer Solution • 1.a. 3.947 g potassium phosphate and 16.401 g potassium chloride were dissolved in approx. 900 ml of water. • 1.b. The pH was adjusted to 6.8 by slow addition of 0.1 N sodium hydroxide (Scharlau SO 0441010C) under magnetic stirring. • 1.c The mixture was diluted to a volume of 1000 ml with water. 2. Preparation of 100 ml of FaSSIF • 2.a. 269 mg NaTaurochol. (Aldrich T-4009) was dissolved in approx. 80 ml of pH 6.8 buffer. • 2.b. 114 mg lecithin (Sigma P-7318) was dissolved in this NaTaurochol/buffer solution (this was carried out with a nitrogen filled glove bag). • 2.c. The resulting mixture was diluted to a volume of 100 ml with further pH 6.8 buffer • 2.d. The final solution was covered with a layer of nitrogen or alternative inert gas. The bottle was sealed with parafilm and stored at 4° C. • B) FeSSIF is a solvent which simulates the Fed State of the Intestinal Fluid. (FeSSIF: Fed State Simulated Intestinal Fluid).
FeSSIF Preparation Procedure. 1. Prepare 1 L of pH 5 Buffer Solution • 1.a. 15.2 g potassium chloride and 8.25 ml glacial acetic acid were dissolved in approx. 900 ml of water. • 1.b. The pH was adjusted to 5 by slow addition of NaOH 0.1N (Scharlau SO 0441010C) under magnetic stirring. • 1.c The mixture was diluted to a volume of 1000 ml with water. 2. Preparation of 100 mL of FeSSIF • 2.a. 806.5 mg NaTaurochol (Aldrich T-4009) was dissolved in 80 ml of pH 5 buffer. • 2.b. 288 mg lecithin (Sigma P-7318) was dissolved in this NaTaurochol/buffer solution (carried out with a nitrogen filled glove bag). • 2.c. […]

Where [1] appears, read: FaSSIF (Fasted State Simulated Intestinal Fluid), pH 6.8 buffer, read-out: Solubility in FaSSIF.
Setting [2] is: FeSSIF (Fed State Simulated Intestinal Fluid), pH 5.0 buffer, read-out: Solubility in FeSSIF.

In general, solubility refers to the concentration that dissolves in the medium under given conditions.

`CON=Cc1[nH]c(C)c(Cl)c(=O)c1-c1ccc(Oc2ccc(OC(F)(F)F)cc2)cc1` (single isomer, unassigned) [Example 6, 5-Chloro-6-methyl-4-oxo-3-[4-({4-[(trifluoromethyl)oxy]phenyl}oxy)phenyl]-1,4-dihydro-2-pyridinecarbaldehyde-O-methyloxime]: the solubility at 24 h was 5 to 10 µg/mL (≈ 11 to 22.1 µM) under setting [1] and 10 to 50 µg/mL (≈ 22.1 to 110 µM) under setting [2].
Taken in the same sequence, the figures for `Cc1[nH]c(C=NO)c(Cl)c(=O)c1-c1ccc(Oc2ccc(OC(F)(F)F)cc2)cc1` (single isomer, unassigned) [Example 7, 3-chloro-6-methyl-4-oxo-5-[4-({4-[(trifluoromethyl)oxy]phenyl}oxy)phenyl]-1,4-dihydro-2-pyridinecarbaldehyde oxime] were 1 to 5 µg/mL (≈ 2.28 to 11.4 µM) and 5 to 10 µg/mL (≈ 11.4 to 22.8 µM).
Taken in the same sequence, the figures for `Cc1[nH]c(CO)c(-c2ccc(Oc3ccc(OC(F)(F)F)cc3)cc2)c(=O)c1Cl` [Example 1, 3-Chloro-6-(hydroxymethyl)-2-methyl-5-[4-({4-[(trifluoromethyl)oxy]phenyl}oxy)phenyl]-4(1H)-pyridinone] were 1 to 5 µg/mL (≈ 2.35 to 11.7 µM) and 5 to 10 µg/mL (≈ 11.7 to 23.5 µM).
The like results for `Cc1[nH]c(CO)c(-c2ccc(Oc3cccc(C(F)(F)F)c3)cc2)c(=O)c1Cl` [Example 2] were, in that order, 1 to 5 µg/mL (≈ 2.44 to 12.2 µM) and 1 to 5 µg/mL (≈ 2.44 to 12.2 µM).
On to `Cc1[nH]c(CO)c(Cl)c(=O)c1-c1ccc(Oc2ccc(OC(F)(F)F)cc2)cc1` [Example 3, 3-chloro-2-(hydroxymethyl)-6-methyl-5-[4-({4-[(trifluoromethyl)oxy]phenyl}oxy)phenyl]-4(1H)-pyridinone], for which the solubility at 24 h was 5 to 10 µg/mL (≈ 11.7 to 23.5 µM) under setting [1] and 10 to 50 µg/mL (≈ 23.5 to 117 µM) under setting [2].
Regarding `Cc1[nH]c(CO)c(Cl)c(=O)c1-c1ccc(Oc2cccc(C(F)(F)F)c2)cc1` [Example 4, 3-chloro-2-(hydroxymethyl)-6-methyl-5-(4-{[3-(trifluoromethyl)phenyl]oxy}phenyl)-4(1H)-pyridinone], the solubility at 24 h was 1 to 5 µg/mL (≈ 2.44 to 12.2 µM) under setting [1] and 10 to 50 µg/mL (≈ 24.4 to 122 µM) under setting [2].
Regarding `Cc1[nH]c(/C=N/O)c(-c2ccc(Oc3ccc(OC(F)(F)F)cc3)cc2)c(=O)c1Cl` [Example 5, 5-Chloro-6-methyl-4-oxo-3-[4-({4-[(trifluoromethyl)oxy]phenyl}oxy)phenyl]-1,4-dihydro-2-pyridinecarbaldehyde oxime], the solubility at 24 h runs as follows: under setting [1], 5 to 10 µg/mL (≈ 11.4 to 22.8 µM); under setting [2], 10 to 50 µg/mL (≈ 22.8 to 114 µM).
`Cc1[nH]c(CCCO)c(-c2ccc(Oc3ccc(OC(F)(F)F)cc3)cc2)c(=O)c1Cl` [Example 8, 3-chloro-6-(3-hydroxypropyl)-2-methyl-5-[4-({4-[(trifluoromethyl)oxy]phenyl}oxy)phenyl]-4(1H)-pyridinone]: the solubility at 24 h was 10 to 50 µg/mL (≈ 22 to 110 µM) under setting [1] and 10 to 50 µg/mL (≈ 22 to 110 µM) under setting [2].
